Where a name gives a salt, the structure may show the parent alone. Blank lines part the entries; values can stand above or below the molecule they belong to.
What was measured:
[1] = Merckoquant peroxide test (ppm of H2O2) during storage at room temperature; conditions: for stabilizing effect: 0.05% by weight of the antioxidant; for stabilization of the glycerol monoalkyl ethers over a long period (peroxides, neck-in effect): added to Sensiva SC 50, storage at room temperature, Table 1; for ppm of H2O2: storage at room temperature
Experimental: The data in “ppm of H2O2” refer to the peroxide determination using Merckoquant® peroxide test analysis strips. This semiquantitative method for determining peroxide was carried out as follows: • About 0.5 g of the sample to be investigated is placed in a test tube and treated with the same amount of demineralized water. The two phases are mixed by shaking, and a Merckoquant® peroxide test analysis strip is dipped in for one second. The damp strip is removed from the liquid and the peroxide content is read off after 15 seconds using the reference scale and noted. If the peroxide content is too high, the amount is doubled with demineralized water, again shaken etc., until a reading is possible using the reference scale. The value obtained is back-calculated using the dilution.
(§2) Following preparation of the samples, the value for ppm of H2O2 and the pH were determined at regular intervals.

[2] = Appearance of the storage bottle (neck-in effect); assay type: physicochemical; conditions: for Appearance of the bottle: Example 1, storage at room temperature
Experimental: as §2

[3] = Peroxide number (PON) by titration with sodium thiosulphate; assay type: physicochemical; conditions: for peroxide number as a function of time: Example 2, salt solution added to Sensiva SC 50
Experimental: The peroxide number (PON) gives the amount peroxide in milliequivalents of active oxygen which is present in 1000 g of substance, determined in accordance with the method below. • 5.00 g of substance are weighed into a 250 ml Erlenmeyer flask with ground-glass stopper and dissolved in 30 ml of a mixture of 2 parts by volume of chloroform R and 3 parts by volume of acetic acid 98% R with shaking. […] Following the addition of 5 ml of starch solution R, the titration is continued with vigorous shaking until the blue coloration disappears (n1 ml of 0.01 N sodium thiosulphate solution). A control experiment is carried out under the same conditions (n2 ml of 0.01 N sodium thiosulphate solution). For this, at most 0.1 ml of 0.01 N sodium thiosulphate solution must be consumed.
The peroxide number is calculated as follows: […]
where m is the initial weight of the substance in grams.
The method is explained in more detail in DAB 9-Kornrnentar [German Pharmacopoeia 9 Commentary] (K. Hartke, E. Mutschler, Editor, Wissenschaftliche Verlagsgesellschaft mbH Stuttgart, 9th edition 1986).
(§1) The peroxide number of compositions of Sensiva® SC 50 and Lipacide e8G salts was compared with the stability of mixtures of Sensiva® SC 50 and other 30 salts.

[4] = pH of 50% strength slurry in demineralized water, Merck pH indicator strips; assay type: physicochemical; conditions: storage at room temperature
From the text: The pH of the anhydrous solutions is given as the value which a 50% strength slurry of the respective anhydrous solution in demineralized water has, determined using Merck® pH indicator strips.

[5] = Appearance of the composition; assay type: physicochemical
From the text: n.c.=no change, d.=days, m.=months, w.=weeks, y.=years, n.d.=not detectable, cl=clear, c=colourless, kr=crystals, yl=yellowish, S.=start of the investigation.
as §1

Hazen colour number = assay type: physicochemical
[6] = Example 2, after storage, time not printed (line below the 2 y. 2 m. lines)
[7] = Example 2, start of the investigation

SMILES: COc1ccc(O)c(C(C)(C)C)c1 [BHA, 3-tert-butyl-4-hydroxyanisole]
stabilizing effect [1]: exhibit the stabilizing effect
stabilization of the glycerol monoalkyl ethers over a long period (peroxides, neck-in effect) [1]: stabilize the glycerol monoalkyl ethers over a long period

SMILES: Cc1cc(C(C)(C)C)c(O)c(C(C)(C)C)c1 [BHT, 2,6-di-tert-butyl-p-cresol]
stabilizing effect [1]: exhibit the stabilizing effect
stabilization of the glycerol monoalkyl ethers over a long period (peroxides, neck-in effect) [1]: stabilize the glycerol monoalkyl ethers over a long period

SMILES: CCCCCCCC(=O)NCC(=O)O [Lipacide C8G sodium salts, N-octanoylglycine]
neck-in effect ([2]; Example 2, salt solution added to Sensiva SC 50): the neck-in effect is avoided
peroxide number as a function of time [3]: the peroxide number decreases as a function of time

SMILES: CCCCCCCCCCCCCCCC(=O)OC[C@H](O)[C@H]1OC(=O)C(O)=C1O [ascorbyl palmitate, 6-0-palmitoyl-L-ascorbic acid]
effect on stabilization of the glycerol monoalkyl ether by vitamin E ([1]; Experiments N and O): inhibit its stabilization by vitamin E
stabilization of the glycerol monoalkyl ethers over a long period (peroxides, neck-in effect) [1]: does not stabilize the glycerol monoalkyl ethers

SMILES: O=C([O-])CC(O)(CC(=O)[O-])C(=O)[O-].[Na+].[Na+].[Na+] [sodium citrate]
peroxide number as a function of time [3]: could not be achieved

SMILES: O=S(=O)([O-])[O-].[Na+].[Na+] [sodium sulphate]
peroxide number as a function of time [3]: could not be achieved

SMILES: Cc1c(C)c2c(c(C)c1O)CC[C@@](C)(CCC[C@H](C)CCC[C@H](C)CCCC(C)C)O2 [vitamin E, Alpha-tocopherol]
stabilizing effect [1]: exhibit the stabilizing effect
stabilization of the glycerol monoalkyl ethers over a long period (peroxides, neck-in effect) [1]: stabilize the glycerol monoalkyl ethers over a long period

Further lines, with some results ahead:

Appearance of the bottle ([2]; 2 y. 11 m., listed as A(Alu)): n.c.
Appearance of the bottle ([2]; 2 y., listed as A(Alu)): n.c.
ppm of H2O2 ([1]; 1 y.): 10 ppm
ppm of H2O2 ([1]; 2 m., listed as A(Alu)): 25 ppm
ppm of H2O2 ([1]; 2 w., listed as A(Alu)): 2 ppm
ppm of H2O2 ([1]; 2 y., listed as A(Alu)): 0 ppm
ppm of H2O2 ([1]; 3 m., listed as A(Alu)): 25-50 ppm
ppm of H2O2 ([1]; 3 w.): 2-5 ppm
ppm of H2O2 ([1]; 4 m., listed as A(Alu)): 25-50 ppm
ppm of H2O2 ([1]; 4 w.): 2-5 ppm
ppm of H2O2 ([1]; 5 m., listed as A(Alu)): 50 ppm
ppm of H2O2 ([1]; 5 w.): 2-5 ppm
ppm of H2O2 ([1]; 6 w.): 2-5 ppm
ppm of H2O2 ([1]; 6.5 m., listed as A(Alu)): 50 ppm
ppm of H2O2 ([1]; 7 w., listed as A(Alu)): 5 ppm
ppm of H2O2 ([1]; 8 w., listed as A(Alu)): 5 ppm
ppm of H2O2 ([1]; 8.5 m., listed as A(Alu)): 25-50 ppm
ppm of H2O2 ([1]; 11 m., listed as A(Alu)): 10-25 ppm
ppm of H2O2 ([1]; 14 m.): 10 ppm
ppm of H2O2 ([1]; 16 m.): 10 ppm
ppm of H2O2 ([1]; 7 d., listed as A(Alu)): 0.5 ppm
ppm of H2O2 ([1]; 9 d., listed as A(Alu)): 0.5-1 ppm
PON S. ([3]; Example 1, start of the investigation): 0.5 milliequivalents of active oxy
pH ([4]; 2 m.): 3
pH ([4]; 2 w.): 3
pH ([4]; 3 w.): 3
pH ([4]; 4 w.): 3
pH ([4]; 5 w.): 3
pH ([4]; 6 w.): 3
pH ([4]; 7 w.): 3
pH ([4]; 8 w.): 3
pH ([4]; 7 d.): 3
pH ([4]; 9 d.): 3
SMILES: CCCCC(CC)COCC(O)CO (stereo not shown) [Experiment A(Alu), 3-[(2-ethylhexyl)oxy]-1,2-propanediol]

Appearance [5, 6]: cl c
Appearance S. [5, 7]: cl c
Appearance of the bottle ([2]; 2 y. 11 m., listed as A): consider-
Appearance of the bottle ([2]; 2 y., listed as A): neck in
PE bottle ([2]; Example 2, storage 2 y. 2 m.): considerable
ppm of H2O2 ([1]; 2 m., listed as A): 2-5 ppm
ppm of H2O2 ([1]; 2 w., listed as A): 2-5 ppm
ppm of H2O2 ([1]; 2 y., listed as A): 10-25 ppm
ppm of H2O2 ([1]; 3 m., listed as A): 2-5 ppm
ppm of H2O2 ([1]; 4 m., listed as A): 5 ppm
ppm of H2O2 ([1]; 5 m., listed as A): 5 ppm
ppm of H2O2 ([1]; 6.5 m., listed as A): 5 ppm
ppm of H2O2 ([1]; 7 w., listed as A): 2-5 ppm
ppm of H2O2 ([1]; 8 w., listed as A): 2-5 ppm
ppm of H2O2 ([1]; 8.5 m., listed as A): 5 ppm
ppm of H2O2 ([1]; 11 m., listed as A): 10 ppm
ppm of H2O2 ([1]; 7 d., listed as A): 2 ppm
ppm of H2O2 ([1]; 9 d., listed as A): 2 ppm
PON 2 y. 11 m. ([3]; Example 1, storage at room temperature, 2 y. 11 m., n.d.=not detectable): 25.3 milliequivalents of active oxy
PONS. [3, 7]: 10 milliequivalents of active oxy
PON ([3]; Example 2, storage 2 y. 2 m.): 5-10 milliequivalents of active oxy
PON ([3]; Example 2, storage 6 m.): 20 milliequivalents of active oxy
PON ([3]; Example 2, storage 6 w.): 25 milliequivalents of active oxy
PON ([3]; Example 2, storage 11 w.): 25 milliequivalents of active oxy
PON ([3]; Example 2, storage 4 d.): 10 milliequivalents of active oxy
PON ([3]; Example 2, storage 9 d.): 10-25 milliequivalents of active oxy
Hazen colour number (Hazen colour number; Example 1, storage at room temperature, 8 w.): <5
Hazen colour number (Hazen colour number; [6]): 0
SMILES: CCCCC(CC)COCC(O)CO (stereo not shown) [Experiment A, 3-[(2-ethylhexyl)oxy]-1,2-propanediol]
development of the peroxide content in stored preparations ([1]; Table 1, storage): chaotic development of the peroxide number

stabilizing effect [1]: exhibit the stabilizing effect
SMILES: CC(C)(CO)[C@@H](O)C(=O)NCCCO [dexpanthenol]
stabilization of the glycerol monoalkyl ethers over a long period (peroxides, neck-in effect) [1]: stabilize the glycerol monoalkyl ethers over a long period

— patent US20160008470A1, “STORAGE-STABLE COMPOSITIONS OF GLYCEROL MONOALKYL ETHERS” (AIR LIQUIDE SANTE (INTERNATIONAL), priority 2000, published 2016)
